In paper PMC9740255 (Cells, 2022):
Where two headings read alike, the source gives them in different places.

Experiments:
[1] = target: T1, purified, full length dDAT (Drosophila melanogaster, UniProt Q7K4Y6); experiment: Competitive inhibition of [3H]nisoxetine binding to purified dDAT by scintillation proximity assay (SPA)
T1 construct: Full length dDAT with a C-terminal thrombin cleavage site followed by a His8-tag; made in house; host or cells: Expi293F suspension cells transduced with BacMam baculovirus (virus produced in Sf9)
Method: (§1) Binding of substrates and inhibitors to purified dDAT was assessed through saturation and competition binding by scintillation proximity assay (SPA).
(§2) This mixture was incubated on rotation for 45 min in darkness at 4 °C. The dDAT-SPA buffer mixture was added to the wells along with 100 nM of the desired tritiated ligand (often at 10% specific activity) and the dilution series of the unlabelled competitor. […] The plates were sealed, mixed at RT for 1.5 h on an agitator and left to settle at RT for 30 min. […] Plates were stored at 4 °C overnight and recounted to ensure that the original data was obtained at equilibrium. All experiments were performed in triplicates.
(§3) All statistical tests and data analyses were performed in GraphPad Prism 9 (GraphPad Software, Prism 9 version 9.2.0, San Diego, CA, USA). Unless otherwise specified, all data points are given as mean ± SEM (standard error of the mean) or mean [SEM interval]. Data obtained from competition binding analyses were fitted as a non-linear regression (curve fit) through an inhibitory dose–response model (variable slope), otherwise known as a four-parameter logistic equation. The non-specific binding condition was subtracted before fitting the data. From the logIC50, the IC50 can be obtained and, therefore, the affinity (Ki) derived through the Cheng-Prusoff equation. For homologous competitive binding, whereby the same compound is used as both the labelled and unlabelled ligand, the Cheng-Prusoff equation can be converted to obtain the Kd. Data plotted as a percentage of the control (absence of the competitive ligand) unless otherwise stated, i.e., normalized to the Bmax determined from the sigmoidal fit. Saturation binding data were fitted after subtracting the non-specific binding from each condition. The data were fitted as a non-linear regression (curve fit) through a sigmoidal dose–response (variable slope) model to determine the Kd. Ion binding study data were plotted using the same four-parameter logistic equation. […] The saturation curves on each plate were fitted with a globally shared Bmax value to enable estimation of low affinity constants.

NET = target: NET; design: method as in ref 33 (Agoston et al. 1997); conditions: footnote c: [3H]unknown ligand for NET; ref 33 (Agoston et al. 1997); cited from earlier work
[2] = test system: dDAT stably transfected into MDCK cells; design: method as in ref 25 (Pörzgen et al. 2001); conditions: uptake inhibition of [3H]dopamine, ref 25 (Pörzgen et al. 2001); cited from earlier work
hNET [3] = target: hNET; design: method as in ref 32 (Tatsumi et al. 1997); conditions: footnote a: hNET in HEK293 cells, [3H]nisoxetine; ref 32 (Tatsumi et al. 1997); read-out: NET Ki; cited from earlier work
hDAT [4] = target: hDAT; design: method as in ref 35 (Owens et al. 2001); conditions: footnote e: hDAT in HEK293 cells, [125I]RTI-55; ref 35 (Owens et al. 2001); read-out: DAT Ki; cited from earlier work
hNET [5] = target: hNET; design: method as in ref 35 (Owens et al. 2001); conditions: footnote e: hNET in HEK293 cells, [3H]nisoxetine; ref 35 (Owens et al. 2001); read-out: NET Ki; cited from earlier work
[6] = target: T2, purified dDAT (dDAT-His8) (Drosophila melanogaster, UniProt Q7K4Y6); experiment: Homologous competitive [3H]mazindol binding to purified dDAT (SPA)
T2 construct: Full length dDAT with a C-terminal thrombin cleavage site followed by a His8-tag; made in house; host or cells: Expi293F suspension cells transduced with BacMam baculovirus (virus produced in Sf9)
Method: as §1, §2
(§4) All statistical tests and data analyses were performed in GraphPad Prism 9 (GraphPad Software, Prism 9 version 9.2.0, San Diego, CA, USA). Unless otherwise specified, all data points are given as mean ± SEM (standard error of the mean) or mean [SEM interval]. Data obtained from competition binding analyses were fitted as a non-linear regression (curve fit) through an inhibitory dose–response model (variable slope), otherwise known as a four-parameter logistic equation. The non-specific binding condition was subtracted before fitting the data. From the logIC50, the IC50 can be obtained and, therefore, the affinity (Ki) derived through the Cheng-Prusoff equation. For homologous competitive binding, whereby the same compound is used as both the labelled and unlabelled ligand, the Cheng-Prusoff equation can be converted to obtain the Kd. Data plotted as a percentage of the control (absence of the competitive ligand) unless otherwise stated, i.e., normalized to the Bmax determined from the sigmoidal fit. Saturation binding data were fitted after subtracting the non-specific binding from each condition. The data were fitted as a non-linear regression (curve fit) through a sigmoidal dose–response (variable slope) model to determine the Kd. Ion binding study data were plotted using the same four-parameter logistic equation. […]

DAT = target: DAT; design: method as in ref 34 (Cao et al. 2016); conditions: footnote d: rat caudate putamen membranes, [3H]CFT; ref 34 (Cao et al. 2016); cited from earlier work
hDAT [7] = conditions: read-out: DAT Ki; footnote a: hDAT in HEK293 cells, [3H]CFT; ref 32 (Tatsumi et al. 1997); cited from earlier work
[8] = target: T2, purified dDAT (dDAT-His8); experiment: Saturation binding of [3H]nisoxetine to purified dDAT (SPA)
Method: as §1
All experiments were performed in triplicates.
as §4, with “condition.” for “condition. The data were fitted as a non-linear regression (curve fit) through a sigmoidal dose–response (variable slope) model to determine the Kd. Ion binding study data were plotted using the same four-parameter logistic equation.”

[9] = target: T3, dDAT expressed in COS-7 cells (Drosophila melanogaster, UniProt Q7K4Y6); experiment: Competition binding of [3H]nisoxetine in COS-7 cells expressing dDAT
T3 construct: Full length dDAT with a C-terminal thrombin cleavage site followed by a His8-tag; expressed in transfected cells; host or cells: COS-7 cells, transient transfection
Method: (§5) COS-7 cells (a generous gift from Prof. U. Gether, Univ. of Copenhagen) were transiently transfected in Opti-MEM media (ThermoFisher Scientific, Waltham, MA, USA) using lipofectamine 3000 (ThermoFisher Scientific, Waltham, MA, USA) with 0.36 µg hDAT in the pcDNA3.1 vector, 0.36–0.47 µg hNET in the pcDNA3.1 vector or 0.83–1.6 µg dDAT in pEG BacMam vector per 10^6 cells, in a lipofectamine:DNA (w/w) ratio of 3.5. Cells were seeded in 24-well plates (5 × 10^4/well) coated with poly-ornithine and incubated in 10% CO2 at 37 °C in DMEM media supplemented with 1% FBS.
(§6) Competition binding assays were performed directly in the culture dish 48 h after transfection of the cells. The competition binding experiments were carried out at room temperature (RT). […] All experiments were performed in triplicates.
as §3

[10] = target: T4, hDAT expressed in COS-7 cells (Homo sapiens, UniProt Q01959); experiment: Competition binding of [3H]CFT in COS-7 cells expressing hDAT; conditions: hDAT in COS-7 cells; competitive inhibition of [3H]CFT binding; mean [SEM interval]; read-out: DAT Ki
T4 construct: expressed in transfected cells; host or cells: COS-7 cells, transient transfection
Method: as §5, §6
All statistical tests and data analyses were performed in GraphPad Prism 9 (GraphPad Software, Prism 9 version 9.2.0, San Diego, CA, USA). Unless otherwise specified, all data points are given as mean ± SEM (standard error of the mean) or mean [SEM interval]. […] Data plotted as a percentage of the control (absence of the competitive ligand) unless otherwise stated, i.e., normalized to the Bmax determined from the sigmoidal fit. […]

[11] = target: T5, hNET expressed in COS-7 cells (Homo sapiens, UniProt P23975); experiment: Competition binding of [3H]nisoxetine in COS-7 cells expressing hNET; conditions: hNET in COS-7 cells; competitive inhibition of [3H]nisoxetine binding; mean [SEM interval]; read-out: NET Ki
T5 construct: expressed in transfected cells; host or cells: COS-7 cells, transient transfection
Method: as §6
as §4, with “condition.” for “condition. The data were fitted as a non-linear regression (curve fit) through a sigmoidal dose–response (variable slope) model to determine the Kd. Ion binding study data were plotted using the same four-parameter logistic equation.”

[12] = dDAT in COS-7 cells, competitive inhibition of [3H]nisoxetine binding, mean [SEM interval]

T1 sequence (Q7K4Y6 whole entry): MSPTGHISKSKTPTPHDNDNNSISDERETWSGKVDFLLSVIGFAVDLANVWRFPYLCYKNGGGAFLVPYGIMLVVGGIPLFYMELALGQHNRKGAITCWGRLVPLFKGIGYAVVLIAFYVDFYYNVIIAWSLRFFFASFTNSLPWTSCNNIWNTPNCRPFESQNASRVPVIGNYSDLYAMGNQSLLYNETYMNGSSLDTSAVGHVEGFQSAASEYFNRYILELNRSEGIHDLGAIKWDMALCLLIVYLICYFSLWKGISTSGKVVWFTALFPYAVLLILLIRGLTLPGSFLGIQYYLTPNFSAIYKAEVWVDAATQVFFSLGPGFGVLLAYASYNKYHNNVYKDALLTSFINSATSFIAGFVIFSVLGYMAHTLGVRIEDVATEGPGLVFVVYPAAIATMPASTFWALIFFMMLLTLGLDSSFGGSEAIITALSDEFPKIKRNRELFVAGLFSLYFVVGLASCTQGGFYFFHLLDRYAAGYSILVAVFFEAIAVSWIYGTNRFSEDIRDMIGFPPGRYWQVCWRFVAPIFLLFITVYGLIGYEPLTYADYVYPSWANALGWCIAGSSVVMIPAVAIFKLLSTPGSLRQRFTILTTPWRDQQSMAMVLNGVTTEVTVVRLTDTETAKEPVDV
T2 sequence (Q7K4Y6 whole entry): as above
T3 sequence (Q7K4Y6 whole entry): as above
T5 sequence (P23975 whole entry): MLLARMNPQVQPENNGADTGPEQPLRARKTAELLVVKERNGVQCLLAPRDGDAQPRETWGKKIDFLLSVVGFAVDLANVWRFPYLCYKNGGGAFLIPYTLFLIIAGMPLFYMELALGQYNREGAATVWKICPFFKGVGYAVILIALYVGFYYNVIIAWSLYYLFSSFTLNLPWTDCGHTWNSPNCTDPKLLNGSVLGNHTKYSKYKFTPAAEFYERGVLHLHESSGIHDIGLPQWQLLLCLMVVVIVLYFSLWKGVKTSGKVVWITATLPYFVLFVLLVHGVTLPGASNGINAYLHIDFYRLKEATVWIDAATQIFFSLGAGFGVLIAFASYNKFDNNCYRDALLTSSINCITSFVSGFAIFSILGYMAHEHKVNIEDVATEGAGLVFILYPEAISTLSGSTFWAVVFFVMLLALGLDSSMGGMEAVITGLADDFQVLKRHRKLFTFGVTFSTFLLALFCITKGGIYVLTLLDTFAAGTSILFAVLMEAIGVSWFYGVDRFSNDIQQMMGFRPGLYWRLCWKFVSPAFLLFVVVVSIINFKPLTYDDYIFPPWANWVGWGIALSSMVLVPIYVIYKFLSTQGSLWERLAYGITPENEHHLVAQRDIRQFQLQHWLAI
T4 sequence (Q01959 whole entry): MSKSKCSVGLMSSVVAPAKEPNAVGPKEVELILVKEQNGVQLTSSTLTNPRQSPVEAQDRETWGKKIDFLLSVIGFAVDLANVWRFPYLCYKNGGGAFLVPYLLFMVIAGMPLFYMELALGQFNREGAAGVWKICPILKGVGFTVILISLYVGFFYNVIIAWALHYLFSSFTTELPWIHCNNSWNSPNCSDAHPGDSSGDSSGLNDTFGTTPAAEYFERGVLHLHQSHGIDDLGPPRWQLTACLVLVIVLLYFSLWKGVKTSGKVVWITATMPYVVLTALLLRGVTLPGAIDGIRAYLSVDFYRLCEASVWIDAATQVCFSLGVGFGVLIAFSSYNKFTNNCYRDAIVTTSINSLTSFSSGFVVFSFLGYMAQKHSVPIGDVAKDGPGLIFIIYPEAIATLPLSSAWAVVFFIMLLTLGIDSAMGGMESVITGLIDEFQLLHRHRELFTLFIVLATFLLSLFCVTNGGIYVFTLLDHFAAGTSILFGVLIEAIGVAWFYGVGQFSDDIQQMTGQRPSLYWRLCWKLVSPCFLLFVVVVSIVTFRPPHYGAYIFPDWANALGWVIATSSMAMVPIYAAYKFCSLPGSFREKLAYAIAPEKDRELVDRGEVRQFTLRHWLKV

| SMILES | Ki ([1]; read-out: dDAT Ki) | IC50 [2] | other results |
| --- | --- | --- | --- |
| CCCCN1[C@@H]2CC[C@H]1CC(OC(c1ccc(F)cc1)c1ccc(F)cc1)C2 (stereo partly drawn) [JHW007] | 3100 nM |  | Ki (NET): 1330 nM |
| NCCc1ccc(O)c(O)c1 [Dopamine] |  | 2900 ± 500 nM |  |
| COC(=O)[C@H]1[C@@H](OC(=O)c2ccccc2)C[C@@H]2CC[C@H]1N2C [Cocaine] | 20000 nM | 2660 ± 230 nM | Ki (hNET [3]): 1420 ± 50 nM |
| NC(=O)C[S+]([O-])C(c1ccccc1)c1ccccc1 (stereo not drawn) [Modafinil] | 554000 nM |  |  |
| CC(NC(C)(C)C)C(=O)c1cccc(Cl)c1 (stereo not drawn) [Bupropion] | 7500 nM | 48000 ± 5000 nM |  |
| CN(C)CCC[C@@]1(c2ccc(F)cc2)OCc2cc(C#N)ccc21 [S-citalopram] | 24000 nM | 8100 ± 2100 nM | Ki (hDAT [4]): 27400 ± 3110 nM; Ki (hNET [5]): 7840 ± 998 nM |
| OC1(c2ccc(Cl)cc2)c2ccccc2C2=NCCN21 (stereo not drawn) [Mazindol] | 2800 nM | 4.4 ± 2.2 nM | Ki ([1]; Ki, first (higher affinity) binding population of biphasic curve, [3H]nisoxetine displacement, T = 2 h at RT, two-site fit, representative dataset, estimated): 0.2 nM; Ki ([1]; read-out: Ki, second (lower affinity) binding population of biphasic curve, [3H]nisoxetine displacement, T = 2 h at RT, two-site fit, representative dataset, estimated): 402 nM; IC50 [6]: 25 nM; Kd [6]: 13000 nM; IC50 ([6]; read-out: IC50, second (lower affinity) binding population of biphasic curve, homologous [3H]mazindol competition, biphasic dataset T = 16 h, two-site fit, estimated): 79000 nM; Ki (hNET [3]): 0.45 ± 0.03 nM |
| [O-][S+](CCN1CCN(CC(O)Cc2ccccc2)CC1)C(c1ccc(F)cc1)c1ccc(F)cc1 (stereo not drawn) [JJC8-088] | 33000 nM |  | Ki (DAT): 2.53 ± 0.25 nM |
| CN(C)CCCN1c2ccccc2CCc2ccccc21 [Imipramine] |  | 30 ± 10 nM |  |
| NCCc1c[nH]c2ccc(O)cc12 [Serotonin] | 173000 nM | 43000 ± 7000 nM | Ki (hNET [3]): > 100000 nM; Ki (hDAT [7]): > 100000 nM |
| C[C@H](N)Cc1ccccc1 [D-amphetamine] | 18000 nM | 6600 ± 900 nM |  |
| CC(O)CN1CCN(CC[S+]([O-])C(c2ccc(F)cc2)c2ccc(F)cc2)CC1 (stereo not drawn) [JJC8-091] | 199000 nM |  |  |
| CNCCC(Oc1ccccc1OC)c1ccccc1 (stereo not drawn) [Nisoxetine] |  | 5.6 ± 2.2 nM | Kd [8]: 31 nM; Kd [9]: 70 nM |
| CN[C@@H](C)Cc1ccccc1 [Methamphetamine] | 13000 nM |  | Ki (hNET [3]): 660 ± 20 nM; Ki (hDAT [7]): 2800 ± 100 nM |
| CN(C)CCC=C1c2ccccc2CCc2ccccc21 [Amitriptyline] | 97 nM | 30 ± 1 nM | Ki (hDAT [7]): 3250 ± 20 nM |
| COC(=O)[C@H]1C(c2ccc(I)cc2)C[C@@H]2CC[C@H]1N2C (stereo partly drawn) [RTI-55] | 130 nM | 66 ± 10 nM | Ki [9, 12]: 299 nM; Ki [10]: 0.5 nM; Ki [11]: 4 nM |
| Fc1ccc([C@@H]2CCNC[C@H]2COc2ccc3c(c2)OCO3)cc1 [Paroxetine] | 322 nM | 22 ± 4 nM |  |
| NC[C@H](O)c1ccc(O)c(O)c1 [Norepinephrine] | 184000 nM | 49000 ± 9000 nM | Ki [9]: 68000 nM |
| COC(=O)[C@H]1[C@@H](c2ccc(F)cc2)C[C@@H]2CC[C@H]1N2C [CFT] | 25000 nM |  | Ki [9, 12]: 3900 nM; Ki [11]: 357 nM |
| CNCCC=C1c2ccccc2CCc2ccccc21 [Nortriptyline] |  |  | Ki (hDAT [7]): 1140 ± 30 nM |
